Measurements taken from patent US8198446B2, “Crystalline micropowder particles” (Toray Industries, Inc., priority 2007, dated 2012).
Values joined by “and” are separate entries in the source; they are usually repeats but may differ in a detail not shown here. Equal values may be shown once.

Experiments:
Assay type in all cases: physicochemical
[1] = Measurement of particle diameter distribution (laser diffraction, dry measurement, Mastersizer 2000); conditions: for Particle Diameter Distribution D50 / Particle Diameter Distribution D90: dry measurement, volume basis
Experimental: In the present invention, D50 and D90 are indices for defining particle diameter distribution. Particle diameter distribution is usually called particle size distribution. Particles are divided into groups along with their size with appropriate intervals, and weight (volume) or particle number of the particles belonging to each group is measured to obtain the particle number (frequency) of each group. Taking the particle number (frequency) along the ordinate and taking the particle diameter along the abscissa, a particle diameter distribution is shown as a histogram, frequency curve, cumulative curve or the like. In the present invention, frequency was calculated based on volume. In the particle diameter distribution obtained in such a manner, D50 means the particle diameter at the point where the volume which is cumulatively measured from smaller particles reaches 50%, that is, the point where the cumulative frequency of the volume distribution reaches 50%. D90 means the particle diameter at the point where the volume which is cumulatively measured from smaller particles reaches 90%, that is, the point where the cumulative frequency of the volume distribution reaches 90%. Cumulative frequency (%) of particles which have a smaller diameter than a specified particle diameter can also be calculated from such a distribution chart.
Measurement of the particle diameter distribution of the crystalline finely-ground particles according to the present invention may be carried out with a commercially available apparatus using laser diffraction/scattering based on Mie Theory. For example, the measurement is carried out using a commercially available apparatus such as Malvern (registered trademark) Mastersizer Laser Diffraction Analyzer (Malvern Instruments Ltd). This analyzer irradiates He—Ne laser beam and blue light-emitting diode on particles to obtain a light scattering pattern which occurs on a detector by the irradiation, and then analyzes the light scattering pattern according to Mie Theory to determine the particle diameter distribution. […] An example of the measurement condition is as follows, which was used in Evaluation 1 of the present invention.
• Apparatus: Laser diffraction-based particle size distribution analyzer Mastersizer 2000 (Malvern) • Dry measurement unit: Scircco 2000 • Refractive Index of Samples: Real part; 1.810, Imaginary part; 0 • Time for Sample Measurement: 1 second • Time for Background Measurement: 5 seconds • Pressure: 2.0 bar • Feed Rate: 40% • Analysis Model: Single narrow mode • Calculation Sensitivity Enhanced • Particle Shape Irregular • Analysis Range: 0.020 to 2000 μm • Basis of Size Distribution Measurement: Volume
The particle diameter distribution of the subject compound was measured by dry measurement using a particle size distribution analyzer (Mastersizer 2000, manufactured by Malvern). D50 and D90 were calculated as an index of the particle diameter distribution.

[2] = Check of crystalline state and measurement of degree of crystallinity by powder X-ray diffraction; conditions: for Degree of Crystallinity: powder X-ray diffraction, Xc=(Sc/(Sc+Sa))×100
Experimental: The degree of crystallinity of the crystalline finely-ground particles according to the present invention is calculated from the integrated intensity ratio of crystalline peaks and amorphous halo which are extracted from an X-ray diffraction pattern obtained by powder X-ray diffraction measurement.
The powder X-ray diffraction measurement may be carried out by using, for example, a powder X-ray diffractometer (2200/RINT Ultima+PC) manufactured by Rigaku as described in Evaluation 2 of the present invention. In preparation of a measurement sample, 100 mg of a sample material is filled in a glass sample plate (0.2 mm depth) in non-destructive condition, and the surface of the sample material is leveled out using a glass plate to obtain a measurement sample. An example of the measurement condition is as follows, which was used in the present invention.
The degree of crystallinity may be calculated by a known analysis method using diffraction patterns of a sample material and sample plate alone (without a sample material) and a difference pattern thereof. For example, using a powder X-ray diffraction pattern analysis software JADE5.0 produced by MDI, which is a commercially available analysis software, a degree of crystallinity may be calculated as follows.
• (1) A difference pattern of the diffraction patterns of a sample material and sample plate alone is smoothed (Savitzky-Goray filter: 19 points). • (2) For a display area of the difference pattern, the x-axis: diffraction angle (2θ) is set between 2 deg and 90 deg, and the y-axis: diffraction intensity (Counts) is set between 0 and 500. • (3) Points are set at diffraction angles of […], 65 and 90 deg, respectively, and a straight line parallel to the x-axis is drawn such that the line is contact with the difference diffraction pattern at a range of 65 deg to 90 deg. The area below the line is determined as a background. • (4) The background is subtracted. • (5) An integrated intensity at a range of 4 deg to 60 deg is calculated (which corresponds to a sum of the integrated intensity of crystalline peaks and an amorphous halo: Sc+Sa) • (6) Points are set at diffraction angles of 2, 7, 18, 26, 30, 35, 59, 65 and 90 deg, respectively. At 2, 65 and 90 deg, the diffraction intensity is set as 0, and at 7, 18, 26, 30, 35 and 59 deg, an approximation by a cubic spline is made such that the approximation formula is in contact with the difference pattern obtained after the subtraction of the background, thereby estimating an amorphous halo. • (7) The amorphous halo is subtracted. • (8) The integrated intensity at a range of 4 deg to 60 deg is calculated (which corresponds to the integrated intensity of the crystalline peaks: Sc). • (9) A degree of crystallinity is calculated according to the following equation. Xc=(Sc/(Sc+Sa))×100 Equation • Xc: Degree of crystallinity (%) • Sc: Integrated intensity of the crystalline peaks • Sa: Integrated intensity of the amorphous halo
For check of the crystalline state and measurement of the degree of crystallinity, powder X-ray diffraction measurement was carried out using a powder X-ray diffraction analyzer (2200/RINT Ultima+PC) manufactured by Rigaku.

[3] = Storage stability (2): total amount of related substances by HPLC, 60° C./75% RH opened
Experimental: For comparison of storage stability, the ground pharmaceutical active substance of Comparative Example 4 (grinding for 3 min), Comparative Example 5 (grinding for 6 min) and Comparative Example 6 (grinding for 7 min), all of which were ground with Table Ball Mill (model V-2M: manufactured by Irie Shokai), were left under the storage condition of 60° C./75% RH opened, and the total amount of related substances was analyzed by HPLC 0.5 and 2 months after the start of the storage (Table 7).

[4] = Storage stability (1): content of pharmaceutical active substance by HPLC, 60° C./75% RH opened
Experimental: For comparison of storage stability, the ground pharmaceutical active substance of Example 6 (crystallinity 88%) which was ground with a jet mill pulverizer Co-jet (α-mkII: manufactured by Seishin Enterprise) and that of Comparative Example 7 (crystallinity 73%) which was ground with a mortar and pestle were left under the storage condition of 60° C./75% RH opened, and the content of the pharmaceutical active substance was analyzed by HPLC 0.5 and 2 months after the start of the storage (Table 6).

[5] = 60° C./75% RH opened, 0.5-Month Later
[6] = 60° C./75% RH opened, 2-Month Later

| Structure (SMILES) | Particle Diameter Distribution D50 [1] [μm] | Particle Diameter Distribution D90 [1] | Degree of Crystallinity [2] [%] | also measured |
| --- | --- | --- | --- | --- |
| O=C1c2ccccc2C(=O)N1[C@@H]1CC[C@@]2(O)[C@H]3Cc4ccc(O)c5c4[C@@]2(CCN3CC2CC2)[C@H]1O5 [Comparative Example 4, N-(17-cyclopropylmethyl-4,5α-epoxy-3,14-dihydroxy-morphinan-6β-yl)-phthalimide] | 17.1 | 168 μm | 82 | Total Amount of Related Substances [3, 5]: 0.38%; Total Amount of Related Substances ([3]; At Start of Storage): 0.23% |
| O=C1c2ccccc2C(=O)N1[C@@H]1CC[C@@]2(O)[C@H]3Cc4ccc(O)c5c4[C@@]2(CCN3CC2CC2)[C@H]1O5 [Comparative Example 1, N-(17-cyclopropylmethyl-4,5α-epoxy-3,14-dihydroxy-morphinan-6β-yl)-phthalimide] | 32.4 | 110 μm | 97 | Cumulative Frequency of Volume Distribution Which Is Occupied by Particles with Volume-Based Particle Diameter 15 (μm) or Less [1]: 23.3% |
| O=C1c2ccccc2C(=O)N1[C@@H]1CC[C@@]2(O)[C@H]3Cc4ccc(O)c5c4[C@@]2(CCN3CC2CC2)[C@H]1O5 [Example 4, N-(17-cyclopropylmethyl-4,5α-epoxy-3,14-dihydroxy-morphinan-6β-yl)-phthalimide] | 14.6 | 47.8 μm | 96 | Cumulative Frequency of Volume Distribution Which Is Occupied by Particles with Volume-Based Particle Diameter 15 (μm) or Less [1]: 51.7% |
| O=C1c2ccccc2C(=O)N1[C@@H]1CC[C@@]2(O)[C@H]3Cc4ccc(O)c5c4[C@@]2(CCN3CC2CC2)[C@H]1O5 [Example 9, N-(17-cyclopropylmethyl-4,5α-epoxy-3,14-dihydroxy-morphinan-6β-yl)-phthalimide] | 11.5 | 30.9 μm | 89 | – |
| O=C1c2ccccc2C(=O)N1[C@@H]1CC[C@@]2(O)[C@H]3Cc4ccc(O)c5c4[C@@]2(CCN3CC2CC2)[C@H]1O5 [Example 3, N-(17-cyclopropylmethyl-4,5α-epoxy-3,14-dihydroxy-morphinan-6β-yl)-phthalimide] | 9.89 | 29.4 μm and 28.4 μm | 94 | Cumulative Frequency of Volume Distribution Which Is Occupied by Particles with Volume-Based Particle Diameter 15 (μm) or Less [1]: 70.8% |
| O=C1c2ccccc2C(=O)N1[C@@H]1CC[C@@]2(O)[C@H]3Cc4ccc(O)c5c4[C@@]2(CCN3CC2CC2)[C@H]1O5 [Comparative Example 7, N-(17-cyclopropylmethyl-4,5α-epoxy-3,14-dihydroxy-morphinan-6β-yl)-phthalimide] | – | – | – | Content of Pharmaceutical Active Substance by HPLC [4, 5]: 98.85%; Degree of Decrease Based on Start of Storage [4, 5]: 1.64; Content of Pharmaceutical Active Substance by HPLC [4, 6]: 98.51%; Degree of Decrease Based on Start of Storage [4, 6]: 2.13; Content of Pharmaceutical Active Substance by HPLC ([4]; At Start of Storage): 99.30% |
| O=C1c2ccccc2C(=O)N1[C@@H]1CC[C@@]2(O)[C@H]3Cc4ccc(O)c5c4[C@@]2(CCN3CC2CC2)[C@H]1O5 [Example 6, N-(17-cyclopropylmethyl-4,5α-epoxy-3,14-dihydroxy-morphinan-6β-yl)-phthalimide] | 5.13 | 11.2 μm | – | Content of Pharmaceutical Active Substance by HPLC [4, 5]: 99.15%; Degree of Decrease Based on Start of Storage [4, 5]: 1.39; Content of Pharmaceutical Active Substance by HPLC [4, 6]: 99.09%; Degree of Decrease Based on Start of Storage [4, 6]: 1.49; Content of Pharmaceutical Active Substance by HPLC ([4]; At Start of Storage): 99.39% |
| O=C1c2ccccc2C(=O)N1[C@@H]1CC[C@@]2(O)[C@H]3Cc4ccc(O)c5c4[C@@]2(CCN3CC2CC2)[C@H]1O5 [Example 7, N-(17-cyclopropylmethyl-4,5α-epoxy-3,14-dihydroxy-morphinan-6β-yl)-phthalimide] | 5.67 | 16.1 μm | 87 | – |
| O=C1c2ccccc2C(=O)N1[C@@H]1CC[C@@]2(O)[C@H]3Cc4ccc(O)c5c4[C@@]2(CCN3CC2CC2)[C@H]1O5 [Example 8, N-(17-cyclopropylmethyl-4,5α-epoxy-3,14-dihydroxy-morphinan-6β-yl)-phthalimide] | 11.8 | 35.3 μm | 92 | – |
| O=C1c2ccccc2C(=O)N1[C@@H]1CC[C@@]2(O)[C@H]3Cc4ccc(O)c5c4[C@@]2(CCN3CC2CC2)[C@H]1O5 [Example 5, N-(17-cyclopropylmethyl-4,5α-epoxy-3,14-dihydroxy-morphinan-6β-yl)-phthalimide] | 7.83 | 16.0 μm | 90 | – |
| O=C1c2ccccc2C(=O)N1[C@@H]1CC[C@@]2(O)[C@H]3Cc4ccc(O)c5c4[C@@]2(CCN3CC2CC2)[C@H]1O5 [Comparative Example 6, N-(17-cyclopropylmethyl-4,5α-epoxy-3,14-dihydroxy-morphinan-6β-yl)-phthalimide] | 23.0 | 436 μm | 61 | Total Amount of Related Substances [3, 5]: 0.67%; Total Amount of Related Substances [3, 6]: 1.27%; Total Amount of Related Substances ([3]; At Start of Storage): 0.24% |
| O=C1c2ccccc2C(=O)N1[C@@H]1CC[C@@]2(O)[C@H]3Cc4ccc(O)c5c4[C@@]2(CCN3CC2CC2)[C@H]1O5 [Example 1, N-(17-cyclopropylmethyl-4,5α-epoxy-3,14-dihydroxy-morphinan-6β-yl)-phthalimide] | 4.25 | 9.14 μm | 89 | – |
| O=C1c2ccccc2C(=O)N1[C@@H]1CC[C@@]2(O)[C@H]3Cc4ccc(O)c5c4[C@@]2(CCN3CC2CC2)[C@H]1O5 [Comparative Example 3, N-(17-cyclopropylmethyl-4,5α-epoxy-3,14-dihydroxy-morphinan-6β-yl)-phthalimide] | – | – | – | crystalline state by powder X-ray diffraction ([2]; Eight hours after grinding with ball mill): converted into an amorphous material |
